For data set [1], the system named is beta-secretase BACE. The experiment in a line: Western blot, BACE in IMR-32 cells. The format is cell-based, human. To be noted: 150 ppb, 24 hr. How it is done:
(§1) IMR-32 and AML12 cells were seeded on 6-well plates, and then treated with vehicle and various compounds for 6 and 24 hr, as described above. After treatments, cells were rinsed with ice-cold PBS, and lysed in the ice-cold RIPA buffer containing complete proteinase and phosphotase inhibitors (Themo-Fisher Scientific, Waltham, Mass.) on ice for 30 min. Cell lysates were collected using a cell scraper and transfer pipette, and then centrifuged at 12000 g for 30 min at 4° C. to remove the DNA pellet and obtain the protein extract. Protein levels in the supernatant of these cell lysates were determined using the Pierce Micro-BCA protein assay kit (Themo Scientific-Piece Biotechnology, Rockford, Ill.) according to the manufacturer's protocol.
(§2) For Western blot analysis, five micrograms of total proteins from vehicle- and compound(s)-treated cells were subjected to SDS-PAGE gel separation, and then transferred to PVDF membranes, as described previously (Reddy, Liu et al. 2008 Science). […] All primary antibodies except G6PC (Santa Cruz), Actb (Li-COR, Lincoln, Nebr.), Elf2bε and pElf2bε (Abcam, Cambridge, Mass.) were purchased from Cell Signaling Inc. Positive signals on the membrane blots were detected using the Amersham's enhanced chemiluminescence Western Blotting Prime Detection reagents (GE healthcare Lifescience, Pittsburgh, Pa.). […]
(Immunoblotting shows a protein as a band on a membrane.)

The test system of data set [2] is C2C12 cells. The experiment in a line: Quantitative analysis of mitochondrial potential in C2C12 cells. The format is cell-based, mouse. To be noted: for MT potential: 24 hr, compared to control. As to the method:
For C2C12 cells, equal number of cells (1×10^4) were seeded on Corning 96-well clear-bottom and dark-wall cell culture plates (VWR), cultured in 10% FBS DMEM media for 24 hr., and then treated with vehicle (sterilized water), compound C and D and their sulfur analogs for 24 and 48 hrs. These vehicle- or compound-treated cells were rinsed twice with PBS, incubated with Mitotracker Orange fluorescence dye at 37° C. for 30 min, and then replaced with PBS. Mitotracker Orange fluorescence intensities (mitochondrial potential) in these living cells were determined by a Bio-TeK Synergy HT Multi-Mode Fluorescence Microplate Reader (Winooski, Vt.). Eight samples per each treatment were examined for the above analysis, and data are presented as mean±sem of eight samples.

The test system of data set [3] is PEN2. The experiment in a line: Western blot, PEN2 in IMR-32 cells. The format is cell-based, human. To be noted: 150 ppb, 24 hr. How it is done:
as §1, §2

Data set [4] deals with Tau. In words: Western blot, ratio of phosphorylated Tau to total Tau in IMR-32 cells. It counts as cell-based, human. Conditions: 150 ppb, 24 hr. How it is done:
as §1, §2

The subject of data set [5] is PSEN. The experiment in a line: Western blot, PSEN in IMR-32 cells. To be noted: 150 ppb, 24 hr. The format is cell-based, human. As to the method:
as §1, §2

Data set [6] has as its system C2C12 cells. The experiment in a line: Cell viability assay, C2C12. It counts as cell-based, mouse. To be noted: 24 hr and 48 hr, same doses. As to the method: Cell viability in cultured cells was determined using Promega's CellTiter96® AQueous One Solution Cell Proliferation Assay kits, according to the Manufacturer's protocol. In brief, equal number of C2C12 (1×10^4 cells/well), AML-12 (1×10^4 cells/well) and IMR-32 (2×10^4 cells/well) were seeded on 96-well clear plates (VWR) and treated with vehicle or compounds for 24, […] and/or 72 hr. Then, cultured cells were incubated with AQueous One solution (100 ul/per well) at 37° C. for 1 hr, and the absorbance of OD490 nm in each sample was determined by the Bio-Tek microplate reader. Cell viability in culture cells were determined by the subtraction of OD490 nm in cultured cells with the OD490 nm in plain culture media (without seeding of cells). Eight samples per each treatment were examined for the above analysis. Data are presented as Mean±sem of eight samples.

In data set [7] the test system is Gsk3b. The experiment in a line: Western blot, Gsk3b in IMR-32 cells. It counts as cell-based, human. To be noted: 150 ppb, 24 hr, compared to control cells. As to the method: as §1, §2
For data set [8], the system named is pTau S396. In words: Western blot, pTau S396 in IMR-32 cells. The format is cell-based, human. Conditions: 150 ppb, 24 hr. How it is done:
as §1, §2

“Also recorded” adds a separate entry of the source.

Regarding `C[Se]C[C@H]1O[C@@H](n2cnc3c(N)ncnc32)C(O)C1O` (stereo in doubt) [compound C, 5′-Methylselenoadenosine], the “beta-secretase BACE protein” value in data set [1] was “but not PEN2 and beta-secretase BACE proteins were attenuated”. In data set [2], the MT potential result is “significantly enhanced MT potential”. Moreover, in data set [3], the PEN2 protein result was “but not PEN2 and beta-secretase BACE proteins were attenuated”. Further, the “ratio of total pTauS396 and pTauS400/T403/S404 to total Tau proteins” value in data set [4] was “significantly attenuated total phosphorylation of Tau protein”. For the same compound, in data set [5], the PSEN protein level result is listed as “significant reduction”. The cell viability entry in data set [6] is reported as “did not affect cell viability”. For the same compound, the Gsk3b protein levels result in data set [7] is given as “statistically significant decrease of Gsk3b protein levels”.
As to `Nc1ncnc2c1ncn2[C@@H]1O[C@H](C[Se]CC[C@@H](N)C(=O)O)C(O)C1O` (some centres unmarked) [compound D, 5′-Selenoadenosyl homocysteine], in data set [2], the MT potential entry is listed as “significantly enhanced MT potential”. Further, the “potency on MT potential relative to compound C” value in data set [2] (lower doses (37.5 and 75 ppb)) is “more potent than compound C”. Also, the “stimulation of mitochondrial activity over control levels” value in data set [2] (most effective dose) is “two-fold over control levels; also recorded: two-fold stimulation of mitochondrial activity”. Besides, the “phosphorylation of Tau at S396” value in data set [8] is on record as “had no effect on Tau phosphorylation at all tested serine/threonine residues”. In data set [6], the cell viability entry is recorded as “did not affect cell viability”.
As for `C[Se]CC(NC(=O)CCC(N)C(=O)O)C(=O)O` (centres unmarked) [compound E, gamma-glutamyl-methylseleno-cysteine], the “phosphorylation of Tau at S396” value in data set [8] is “significantly down-regulated”. Also, the “ratio of total pTauS396 and pTauS400/T403/S404 to total Tau proteins” value in data set [4] is listed as “trend of reduced Tau phosphorylation”.

The values are drawn from patent publication US10201559B2, “Compositions of selenoorganic compounds and methods of use thereof” (Alltech, Inc., priority 2014, dated 2019).
